This note sets out measurements from patent US7928098B2, “Therapeutic and/or preventive agents for a sleep disorder” (Kyowa Hakko Kirin Co., Ltd., priority 2005, dated 2011).

The term melting point denotes the temperature, or range, at which the solid turns liquid. Turning to `CN(C)CC(=O)Nc1nc(-c2ccco2)c(C(=O)C2CCOCC2)s1` [Compound 438, 2-(Dimethylamino)-N-[4-(2-furyl)-5-(tetrahydropyran-4-ylcarbonyl)thiazol-2-yl]acetamide], the melting point fell in the range of 129 to 130 °C.

Regarding `COCCN(C)CC(=O)Nc1nc(-c2ccco2)c(C(=O)C2CCOCC2)s1` [Compound 439, N-[4-(2-Furyl)-5-(tetrahydropyran-4-ylcarbonyl)thiazol-2-yl]-2-[N-(2-methoxyethyl)-N-methylamino]acetamide], the melting point lay within 103 to 105 °C.

Molecule `O=C(CN1CCCC1)Nc1nc(-c2ccco2)c(C(=O)C2CCOCC2)s1` [Compound 441, N-[4-(2-Furyl)-5-(tetrahydropyran-4-ylcarbonyl)thiazol-2-yl]-2-(1-pyrrolidinyl)acetamide] registered a melting point of 115 to 117 °C.

For the molecule `COC[C@H]1CCCN1CC(=O)Nc1nc(-c2ccco2)c(C(=O)C2CCOCC2)s1` [Compound 442, N-[4-(2-Furyl)-5-(tetrahydropyran-4-ylcarbonyl)thiazol-2-yl]-2-[(2R)-2-(methoxymethyl)pyrrolidin-1-yl]acetamide], the melting point fell in the range of 103 to 104 °C.

The molecule `COC[C@@H]1CCCN1CC(=O)Nc1nc(-c2ccco2)c(C(=O)C2CCOCC2)s1` [Compound 443, N-[4-(2-Furyl)-5-(tetrahydropyran-4-ylcarbonyl)thiazol-2-yl]-2-[(2S)-2-(methoxymethyl)pyrrolidin-1-yl]acetamide] showed a melting point of 102 to 103 °C.

In turn, `O=C(CN1CCCCC1)Nc1nc(-c2ccco2)c(C(=O)C2CCOCC2)s1` [Compound 447, N-[4-(2-Furyl)-5-(tetrahydropyran-4-ylcarbonyl)thiazol-2-yl]-2-piperidinoacetamide] yielded a melting point of 146 to 147 °C.

Regarding `O=C(CN1CCC(O)CC1)Nc1nc(-c2ccco2)c(C(=O)C2CCOCC2)s1` [Compound 448, N-[4-(2-Furyl)-5-(tetrahydropyran-4-ylcarbonyl)thiazol-2-yl]-2-(4-hydroxypiperidino)acetamide], the melting point lay in the range of 178 to 180 °C.

In the case of `COC1CCN(CC(=O)Nc2nc(-c3ccco3)c(C(=O)C3CCOCC3)s2)CC1` [Compound 450, N-[4-(2-Furyl)-5-(tetrahydropyran-4-ylcarbonyl)thiazol-2-yl]-2-(4-methoxypiperidino)acetamide], the melting point was 109 to 111 °C.

In the case of `CC1(O)CCN(CC(=O)Nc2nc(-c3ccco3)c(C(=O)C3CCOCC3)s2)CC1` [Compound 451, N-[4-(2-Furyl)-5-(tetrahydropyran-4-ylcarbonyl)thiazol-2-yl]-2-(4-hydroxy-4-methylpiperidino)acetamide], the melting point was in the range of 151 to 153 °C.

As to `O=C(CN1CCC(N2CCCC2)CC1)Nc1nc(-c2ccco2)c(C(=O)C2CCOCC2)s1` [Compound 456, N-[4-(2-Furyl)-5-(tetrahydropyran-4-ylcarbonyl)thiazol-2-yl]-2-[4-(1-pyrrolidinyl)piperidino]acetamide], the melting point lay within 183 to 184 °C.

`O=C(CN1CCC(N2CCCCC2)CC1)Nc1nc(-c2ccco2)c(C(=O)C2CCOCC2)s1` [Compound 457, N-[4-(2-Furyl)-5-(tetrahydropyran-4-ylcarbonyl)thiazol-2-yl]-2-(4-piperidinopiperidino)acetamide] had a melting point of 177 to 179 °C.

For the molecule `O=C(CN1CCC(N2CCOCC2)CC1)Nc1nc(-c2ccco2)c(C(=O)C2CCOCC2)s1` [Compound 458, N-[4-(2-Furyl)-5-(tetrahydropyran-4-ylcarbonyl)thiazol-2-yl]-2-(4-morpholinopiperidino)acetamide], the melting point was 193 to 195 °C.

In turn, `O=C(CN1CCC2(CC1)OCCO2)Nc1nc(-c2ccco2)c(C(=O)C2CCOCC2)s1` [Compound 459, 2-(1,4-Dioxa-8-azaspiro[4.5]decan-8-yl)-N-[4-(2-furyl)-5-(tetrahydropyran-4-ylcarbonyl)thiazol-2-yl]acetamide] yielded a melting point of 186 to 187 °C.

On to `CN1CCN(CC(=O)Nc2nc(-c3ccco3)c(C(=O)C3CCOCC3)s2)CC1` [Compound 467, N-[4-(2-Furyl)-5-(tetrahydropyran-4-ylcarbonyl)thiazol-2-yl]-2-(4-methylpiperazin-1-yl)acetamide], for which the melting point lay within 106 to 112 °C.

For the molecule `CC(C)(O)CN1CCN(CC(=O)Nc2nc(-c3ccco3)c(C(=O)C3CCOCC3)s2)CC1` [Compound 470, N-[4-(2-Furyl)-5-(tetrahydropyran-4-ylcarbonyl)thiazol-2-yl]-2-[4-(2-hydroxy-2-methylpropyl)piperazin-1-yl]acetamide], the melting point is 106 to 108 °C.

Consider `COC(C)(C)CN1CCN(CC(=O)Nc2nc(-c3ccco3)c(C(=O)C3CCOCC3)s2)CC1` [Compound 471, N-[4-(2-Furyl)-5-(tetrahydropyran-4-ylcarbonyl)thiazol-2-yl]-2-[4-(2-methoxy-2-methylpropyl)piperazin-1-yl]acetamide], for which the melting point lay in the range of 105 to 107 °C.

Turning to `COC1(CN2CCN(CC(=O)Nc3nc(-c4ccco4)c(C(=O)C4CCOCC4)s3)CC2)CC1` [Compound 472, N-[4-(2-Furyl)-5-(tetrahydropyran-4-ylcarbonyl)thiazol-2-yl]-2-{4-[(1-methoxycyclopropyl)methyl]piperazin-1-yl}acetamide], the melting point was 155 to 157 °C.

Molecule `CN1CCCN(CC(=O)Nc2nc(-c3ccco3)c(C(=O)C3CCOCC3)s2)CC1` [Compound 481, N-[4-(2-Furyl)-5-(tetrahydropyran-4-ylcarbonyl)thiazol-2-yl]-2-(4-methyl-1,4-diazepan-1-yl)acetamide] came in with a melting point of 94 to 96 °C.

With `O=C(CNC12CC3CC(CC(C3)C1)C2)Nc1nc(-c2ccco2)c(C(=O)C2CCOCC2)s1` [Compound 482, N-[4-(2-Furyl)-5-(tetrahydropyran-4-ylcarbonyl)thiazol-2-yl]-2-(adamantan-1-ylamino)acetamide], the melting point is 168 to 170 °C.

`O=C(CNC12CC3CC(CC(O)(C3)C1)C2)Nc1nc(-c2ccco2)c(C(=O)C2CCOCC2)s1` [Compound 483, N-[4-(2-Furyl)-5-(tetrahydropyran-4-ylcarbonyl)thiazol-2-yl]-2-(3-hydroxyadamantan-1-ylamino)acetamide] had a melting point of 176 to 178 °C.

The molecule `CCOC(=O)Nc1nc(-c2ccco2)c(C(=O)C2CCOCC2)s1` [Compound 486, Ethyl N-[4-(2-furyl)-5-(tetrahydropyran-4-ylcarbonyl)thiazol-2-yl]carbamate] came in with a melting point of 152 to 153 °C.

Molecule `Cc1ncc(C(=O)Nc2nc(-c3ccco3)c(C(=O)C3CCSCC3)s2)cn1` [Compound 494, N-[4-(2-Furyl)-5-(tetrahydrothiopyran-4-ylcarbonyl)thiazol-2-yl]-2-methylpyrimidine-5-carboxamide] came in with a melting point of 238 to 240 °C.

Regarding `COc1ccc(-c2c[nH]c(-c3nc(-c4ccco4)c(C(=O)C4CCOCC4)s3)n2)cc1` [Compound 520, 4-(2-Furyl)-2-[4-(4-methoxyphenyl)imidazol-2-yl]thiazol-5-yl tetrahydropyran-4-yl ketone], the melting point fell in the range of 178 to 180 °C.
